Measurements taken from PubChem BioAssay AID624129 (Sanford-Burnham Center for Chemical Genomics, 2012).
The source made the active and inactive calls. No rule for the calls is given here.

Key:
Experiment in all cases: CXCR6 receptor antagonists, dose response, cell-based, beta-arrestin, DiscoveRx, APJ panel, uHTS hits (AID 624129)
[1] = molecular target: C-X-C chemokine receptor type 6 (Homo sapiens) (UniProt O00574); details: CXCR6 beta-arrestin (DiscoveRx) antagonist cell assay; for inhibition: CXCR6, run 1, dose range 2, at 80 µM (top of the series)
C-X-C chemokine receptor type 6 (Homo sapiens), sequence (O00574 whole entry, looked up): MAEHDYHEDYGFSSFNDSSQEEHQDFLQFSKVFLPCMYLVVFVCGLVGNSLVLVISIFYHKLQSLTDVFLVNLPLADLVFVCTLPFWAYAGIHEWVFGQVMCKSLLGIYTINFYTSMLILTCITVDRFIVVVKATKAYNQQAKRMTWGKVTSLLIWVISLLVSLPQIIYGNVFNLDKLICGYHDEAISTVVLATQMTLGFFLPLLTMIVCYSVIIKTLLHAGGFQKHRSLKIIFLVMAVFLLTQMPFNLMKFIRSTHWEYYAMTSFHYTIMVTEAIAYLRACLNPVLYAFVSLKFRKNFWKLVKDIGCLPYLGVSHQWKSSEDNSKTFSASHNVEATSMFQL

[2] = molecular target: Beta-galactosidase (Escherichia coli) (UniProt Q8VNN2); details: CXCR6 beta-arrestin (DiscoveRx) antagonist cell assay, b-galactosidase
Beta-galactosidase (Escherichia coli), sequence (Q8VNN2 whole entry, looked up): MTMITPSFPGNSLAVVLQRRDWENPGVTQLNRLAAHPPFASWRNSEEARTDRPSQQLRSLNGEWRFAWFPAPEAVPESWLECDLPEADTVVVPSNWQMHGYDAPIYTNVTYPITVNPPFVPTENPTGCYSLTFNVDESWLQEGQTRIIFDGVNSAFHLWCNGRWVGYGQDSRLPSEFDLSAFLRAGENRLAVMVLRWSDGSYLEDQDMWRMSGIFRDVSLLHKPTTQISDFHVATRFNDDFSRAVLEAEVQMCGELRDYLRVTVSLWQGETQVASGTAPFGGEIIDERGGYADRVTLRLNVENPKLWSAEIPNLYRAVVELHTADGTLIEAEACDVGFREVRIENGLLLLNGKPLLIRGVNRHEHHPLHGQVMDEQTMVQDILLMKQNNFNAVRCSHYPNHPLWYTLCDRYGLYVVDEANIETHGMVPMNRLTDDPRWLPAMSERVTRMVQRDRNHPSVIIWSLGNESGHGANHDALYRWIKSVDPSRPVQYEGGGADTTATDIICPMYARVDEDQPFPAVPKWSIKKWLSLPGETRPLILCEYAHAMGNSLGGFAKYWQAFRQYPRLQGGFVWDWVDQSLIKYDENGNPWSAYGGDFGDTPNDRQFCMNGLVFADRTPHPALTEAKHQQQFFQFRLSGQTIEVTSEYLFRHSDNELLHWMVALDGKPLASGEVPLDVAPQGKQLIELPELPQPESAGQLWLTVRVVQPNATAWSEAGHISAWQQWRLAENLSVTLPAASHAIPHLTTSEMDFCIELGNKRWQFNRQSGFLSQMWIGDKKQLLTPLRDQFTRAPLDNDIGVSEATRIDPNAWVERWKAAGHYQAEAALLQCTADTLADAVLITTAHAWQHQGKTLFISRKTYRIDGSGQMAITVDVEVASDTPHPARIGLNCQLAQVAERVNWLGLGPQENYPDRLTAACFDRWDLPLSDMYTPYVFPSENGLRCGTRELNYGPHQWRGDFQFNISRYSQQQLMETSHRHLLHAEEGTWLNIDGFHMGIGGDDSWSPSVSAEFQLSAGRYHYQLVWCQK

[3] = molecular target: Apelin receptor (Homo sapiens) (UniProt P35414); details: CXCR6 beta-arrestin (DiscoveRx) antagonist cell assay, APJ
[4] = molecular target: C-C chemokine receptor type 6 (Homo sapiens) (UniProt P51684); details: CXCR6 beta-arrestin (DiscoveRx) antagonist cell assay
[5] = CXCR6, dose range 1, mean IC50 across replicates
[6] = dose range 1, mean IC50 across replicates
[7] = CCR6, dose range 1, mean IC50 across replicates

Row | SMILES | IC50 ([1]; CXCR6, dose range 1) | IC50 [1, 5] [µM] | IC50 ([1]; CXCR6, run 1, dose range 2) [µM] | IC50 ([1]; CXCR6, run 2, dose range 1) [µM] | IC50 ([1]; CXCR6, run 2, dose range 2) [µM] | IC50 ([2]; dose range 1) | IC50 [2, 6] [µM] | IC50 ([3]; dose range 1) | IC50 [3, 6] [µM] | IC50 ([3]; run 2, dose range 1) [µM] | IC50 ([3]; run 3, dose range 1) [µM] | IC50 ([4]; CCR6, dose range 1) [µM] | IC50 [4, 7] [µM] | IC50 ([4]; CCR6, run 2, dose range 1) [µM] | inhibition [1] [%]
1 | C/C(=N/NC(=O)c1ccc(C(C)(C)C)cc1)c1ccccn1 | 1.32 µM | 1.18 | 0.9 | 1.79 | 0.719 | > 80 µM (inactive) | > 80 | 1.12 µM | 1.41 | 1.66 | 1.45 | 1.26 | 1.53 | 1.8 | –
2 | CC1(C)CC(=O)C(C=Nc2ccc(C(=O)c3ccccc3)cc2N=CC2=C(O)CC(C)(C)CC2=O)=C(O)C1 | inactive | 11.2 | 0.963 | 36.3 | 2.7 | > 80 µM (inactive) | > 80 | inactive | 60 | 62.7 | 75.9 | 3.9 | 5.09 | 6.27 | –
3 | C=C(CN(C)C)C(=O)c1ccc(OC2OC(COC(C)=O)C(OC(C)=O)C(OC(C)=O)C2OC(C)=O)cc1 (stereo not given) | inactive | 22.3 | – | 20.9 | – | > 80 µM (inactive) | > 80 | 38.4 µM | 38.9 | 37.8 | 40.5 | 24.5 | 23.2 | 21.9 | 135
4 | O=C1C=CC2(C=C1)O[C@H](Cc1ccccc1)[C@@H](Cc1ccccc1)O2 | 8.93 µM | 8.35 | 6.66 | 7.5 | 10.3 | > 80 µM (inactive) | > 80 | 7.98 µM | 8.39 | 8.95 | 8.25 | 4.44 | 4.75 | 5.06 | –
5 | O=C(c1nnsc1S(=O)c1ccc(Cl)cc1)N1CCOCC1 (stereo not given) | inactive | 18.3 | – | 17.4 | – | > 80 µM (inactive) | > 80 | 19 µM | 27.6 | 24.9 | 38.9 | 13.2 | 34.3 | 55.4 | 56.2
6 | COc1ccc(-n2c(O)c(/C=N/Nc3nc(C)cc(C)n3)c3ccccc3c2=O)cc1OC | > 80 µM (inactive) | > 80 | – | > 80 | – | > 80 µM (inactive) | > 80 | – | 49.6 | > 80 | 49.6 | 31.3 | 29.2 | 27.2 | 118
7 | Oc1c(I)cc(Cl)c2cccnc12 | 6.47 µM | 4.36 | – | 2.24 | – | > 80 µM (inactive) | > 80 | 3.72 µM | 18.7 | 12.7 | 39.6 | 5.29 | 6.44 | 7.59 | 49.5
8 | O=C1c2ccccc2C(=O)N1OS(=O)(=O)c1ccc(F)cc1 | > 80 µM (inactive) | > 80 | – | > 80 | – | > 80 µM (inactive) | > 80 | 20 µM | 22 | 26.8 | 19.4 | 17.7 | 34.6 | 51.5 | 69.8
9 | COc1ccc(-c2csc(Cc3nc(O)cs3)n2)cc1 | 4.12 µM | 4.09 | 3.66 | 4.68 | 3.91 | > 80 µM (inactive) | > 80 | 4.5 µM | 4.96 | 5.92 | 4.47 | 2.8 | 3.45 | 4.1 | –
10 | CC(=O)OCCCNc1cc(Sc2ccc(C)cc2)c2nonc2c1[N+](=O)[O-] | > 80 µM (inactive) | > 80 | – | > 80 | – | > 80 µM (inactive) | > 80 | – | > 80 | > 80 | > 80 | – | > 80 | > 80 | -24.2
11 | CN(CCO)c1cc(Sc2nc3ccccc3s2)c2nonc2c1[N+](=O)[O-] | 6.85 µM | 7.46 | 8.56 | 6.34 | 8.1 | 25.6 µM | 25.6 | 10.3 µM | 8.8 | 7.74 | 8.35 | 6 | 5.65 | 5.3 | –
12 | O=C(CSc1nc(-c2ccco2)cc(C(F)(F)F)n1)NCCCn1ccnc1 | inactive | 16.9 | – | 18.3 | – | > 80 µM (inactive) | > 80 | 20.7 µM | 21.4 | 22.8 | 20.7 | 17.6 | 19.3 | 21.1 | 126
13 | COc1ccccc1-c1cc(C(F)(F)F)nc(S(=O)(=O)CCCC(=O)NCc2ccc(F)cc2)n1 | > 80 µM (inactive) | > 80 | – | > 80 | – | > 80 µM (inactive) | > 80 | – | > 80 | > 80 | > 80 | – | > 80 | > 80 | -37.9
14 | O=C1c2sc3nc4ccccc4n3c2C(=O)N1c1ccccc1Cl | inactive | 21 | – | 15 | – | 30.8 µM | 30.8 | 23.5 µM | 18 | 16.9 | 13.5 | 16.9 | 14.9 | 12.9 | 103
15 | Cc1ccc(C(=O)/C=C/C(=O)c2ccc(C)cc2)cc1 | > 80 µM (inactive) | > 80 | – | > 80 | – | > 80 µM (inactive) | > 80 | – | > 80 | > 80 | > 80 | – | > 80 | > 80 | 19.4
16 | O=C1CN(C(=O)CSc2nc3cc(Cl)ccc3c(=O)n2Cc2ccccc2)c2ccccc2N1 | – | 8.57 | 9.5 | > 80 | 7.63 | > 80 µM (inactive) | > 80 | > 80 µM (inactive) | > 80 | > 80 | > 80 | 9.4 | 11.1 | 12.7 | –
17 | COc1cccc(-n2nc(C#N)c(Cl)cc2=O)c1 | inactive | 12.6 | 9.33 | 13.7 | 12 | > 80 µM (inactive) | > 80 | 7.86 µM | 7.23 | 7.26 | 6.56 | 6.31 | 9.54 | 12.8 | –
